Reference: patent publication US11142515B2, “Pyrazolyl-ureas as kinase inhibitors” (RESPIVERT LIMITED, priority 2014, dated 2021)

Key:
[1] = target: T1, p38 MAPKα isoform (MAPK14) (Homo sapiens, UniProt Q16539); assay: p38 MAPKα enzyme inhibition (Z-LYTE FRET); type: biochemical; details: Table 2B, unit inferred; read-out: p38 MAPKα (Enzyme Profile)
T1 construct: purchased Life Technologies
Outline: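 Activity was measured indirectly as phosphorylation of a MAPKAP-K2-derived FRET peptide. Enzyme (added at 40 ng/mL) was preincubated 2 h at RT with compound (added solutions 40–0.0012 μg/mL).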

[2] = target: T2, p38MAPKγ (MAPK12) (Homo sapiens, UniProt P53778); assay: p38 MAPKγ enzyme inhibition (Z-LYTE FRET); type: biochemical; details: Table 2B, unit inferred; read-out: p38 MAPKγ (Enzyme Profile)
T2 construct: purchased Life Technologies
T2 sequence (P53778 1-367): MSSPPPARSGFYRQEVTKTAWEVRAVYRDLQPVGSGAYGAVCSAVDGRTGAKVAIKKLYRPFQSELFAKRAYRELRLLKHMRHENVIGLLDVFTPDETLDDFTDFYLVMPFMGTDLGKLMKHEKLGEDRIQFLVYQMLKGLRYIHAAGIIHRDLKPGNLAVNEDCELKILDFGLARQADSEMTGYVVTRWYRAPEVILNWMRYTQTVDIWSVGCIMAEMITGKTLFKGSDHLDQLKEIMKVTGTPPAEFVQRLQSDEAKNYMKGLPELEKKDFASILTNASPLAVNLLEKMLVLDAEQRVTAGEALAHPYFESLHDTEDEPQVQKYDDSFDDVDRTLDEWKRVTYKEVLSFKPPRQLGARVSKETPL
Outline: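 Enzyme (added at 800 ng/mL) was preincubated 2 h at RT with compound (solutions of 40 to 0.0012 μg/mL), then FRET peptide (8 μM) and ATP (400 μM), both as added, were reacted 1 h at RT. Protease development followed for 1 h; phosphorylation was read as the coumarin/fluorescein emission ratio.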

T1 sequence (Q16539 whole entry, canonical isoform): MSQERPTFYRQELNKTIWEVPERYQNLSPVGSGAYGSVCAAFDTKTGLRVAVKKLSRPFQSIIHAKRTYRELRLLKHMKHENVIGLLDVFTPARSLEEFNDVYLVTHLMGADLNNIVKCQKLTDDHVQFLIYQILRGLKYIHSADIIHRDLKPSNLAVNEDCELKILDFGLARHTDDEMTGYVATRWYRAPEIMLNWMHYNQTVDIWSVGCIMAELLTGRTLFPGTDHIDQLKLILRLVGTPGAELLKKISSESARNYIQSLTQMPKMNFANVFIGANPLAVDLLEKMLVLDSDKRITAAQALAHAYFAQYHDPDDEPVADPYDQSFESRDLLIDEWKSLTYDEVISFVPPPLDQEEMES

| SMILES | IC50 [1] [µM] | IC50 [2] [µM] |
| --- | --- | --- |
| Cc1ccc(-n2nc(C(C)(C)C)cc2NC(=O)Nc2ccc(OCc3ccnc(Nc4cnc(C(=O)N5CCC[C@@H](O)C5)cn4)c3)c3ccccc23)cc1 [Example 233, (R)-1-(3-(tert-butyl)-1-(p-tolyl)-1H-pyrazol-5-yl)-3-(4-((2-((5-(3-hydroxypiperidine-1-carbonyl)pyrazin-2-yl)amino)pyridin-4-yl)methoxy)naphthalen-1-yl)urea] | 0.0094 | 0.098 |
| Cc1ccc(-n2nc(C(C)(C)C)cc2NC(=O)Nc2ccc(OCc3ccnc(Nc4cnc(C(=O)N5CCCC5)cn4)c3)c3ccccc23)cc1F [Example 235, 1-(3-(tert-butyl)-1-(3-fluoro-4-methylphenyl)-1H-pyrazol-5-yl)-3-(4-((2-((5-(pyrrolidine-1-carbonyl)pyrazin-2-yl)amino)pyridin-4-yl)methoxy)naphthalen-1-yl)urea] | 0.065 | > 14 |
| Cc1ccc(-n2nc(C(C)(C)C)cc2NC(=O)Nc2ccc(OCc3ccnc(Nc4cnc(C(=O)N5CCNC(=O)CC5)cn4)c3)c3ccccc23)cc1 [Example 241, 1-(3-(tert-butyl)-1-(p-tolyl)-1H-pyrazol-5-yl)-3-(4-((2-((5-(5-oxo-1,4-diazepane-1-carbonyl)pyrazin-2-yl)amino)pyridin-4-yl)methoxy)naphthalen-1-yl)urea] | 0.0034 | 0.048 |
| Cc1ccc(-n2nc(C(C)(C)C)cc2NC(=O)Nc2ccc(OCc3ccnc(Nc4cnc(C(=O)N5CCS(=O)(=O)CC5)cn4)c3)c3ccccc23)cc1 [Example 243, 1-(3-(tert-butyl)-1-(p-tolyl)-1H-pyrazol-5-yl)-3-(4-((2-((5-(1,1-dioxidothiomor-pholine-4-carbonyl)pyrazin-2-yl)amino)pyridin-4-yl)methoxy)naphthalen-1-yl) urea] | 0.0085 | 0.096 |
| Cc1ccc(-n2nc(C(C)(C)C)cc2NC(=O)Nc2ccc(OCc3ccnc(Nc4cnc(C(=O)N5CCN(C)C(=O)C5)cn4)c3)c3ccccc23)cc1 [Example 244, 1-(3-(tert-butyl)-1-(p-tolyl)-1H-pyrazol-5-yl)-3-(4-((2-((5-(4-methyl-3-oxopipera-zine-1-carbonyl)pyrazin-2-yl)amino)pyridin-4-yl)methoxy)naphthalen-1-yl) urea] | 0.003 | 0.046 |
| Cc1ccc(-n2nc(C(C)(C)C)cc2NC(=O)Nc2ccc(OCc3ccnc(Nc4cnc(C(=O)N5C[C@H](O)[C@@H](O)C5)cn4)c3)c3ccccc23)cc1 [Example 247, 1-(3-(tert-butyl)-1-(p-tolyl)-1H-pyrazol-5-yl)-3-(4-((2-((5-((3S,4S)-3,4-dihydroxy-pyrrolidine-1-carbonyl)pyrazin-2-yl)amino)pyridin-4-yl)methoxy)naphthalen-1-yl)urea] | 0.007 | 0.061 |
| COc1cc(F)cc(-n2nc(C(C)(C)C)cc2NC(=O)Nc2ccc(OCc3ccnc(Nc4cnc(C(=O)N5CCCC5)cn4)c3)c3ccccc23)c1 [Example 250, 1-(3-(tert-butyl)-1-(3-fluoro-5-methoxyphenyl)-1H-pyrazol-5-yl)-3-(4-((2-((5-(pyrrolidine-1-carbonyl)pyrazin-2-yl)amino)pyridin-4-yl)methoxy)naphthalen-1-yl)urea] | 0.011 | > 13.7 |
| CCc1ccc(-n2nc(C(C)(C)C)cc2NC(=O)Nc2ccc(OCc3ccnc(Nc4cnc(C)c(C)n4)c3)c3ccccc23)cc1 [Example 251, 1-(3-(tert-butyl)-1-(4-ethyl-phenyl)-1H-pyrazol-5-yl)-3-(4-((2-((5,6-dimethylpyrazin-2-yl)amino)pyridin-4-yl)methoxy)naphthalen-1-yl) urea] | 0.081 | > 15.6 |
| COCCc1cccc(-n2nc(C(C)(C)C)cc2NC(=O)Nc2ccc(OCc3ccnc(Nc4cnccn4)c3)c3ccccc23)c1 [Example 257, 1-(3-(tert-butyl)-1-(3-(2-methoxyethyl)phenyl)-1H-pyrazol-5-yl)-3-(4-((2-(pyrazin-2-ylamino)pyridin-4-yl)methoxy)naphthalen-1-yl)urea] | 0.012 | 0.068 |

Next, values leading:

| IC50 [1] [µM] | IC50 [2] [µM] | SMILES |
| --- | --- | --- |
| 0.064 | > 15.6 | CCc1cccc(-n2nc(C(C)(C)C)cc2NC(=O)Nc2ccc(OCc3ccnc(Nc4cncc(CC)n4)c3)c3ccccc23)c1 [Example 234, 1-(3-(tert-butyl)-1-(3-ethyl-phenyl)-1H-pyrazol-5-yl)-3-(4-((2-((6-ethylpyrazin-2-yl)amino)pyridin-4-yl)methoxy)naphthalen-1-yl)urea] |
| 0.042 | > 14 | Cc1cc(F)cc(-n2nc(C(C)(C)C)cc2NC(=O)Nc2ccc(OCc3ccnc(Nc4cnc(C(=O)N5CCCC5)cn4)c3)c3ccccc23)c1 [Example 236, 1-(3-(tert-butyl)-1-(3-fluoro-5-methylphenyl)-1H-pyrazol-5-yl)-3-(4-((2-((5-(pyrrolidine-1-carbonyl)pyrazin-2-yl)amino)pyridin-4-yl)methoxy)naphthalen-1-yl)urea] |
| 0.0084 | 0.029 | CC(C)(C)c1cc(NC(=O)Nc2ccc(OCc3ccnc(Nc4cnccn4)c3)c3ccccc23)n(-c2cccc(CCO)c2)n1 [Example 237, 1-(3-(tert-butyl)-1-(3-(2-hydroxyethyl)phenyl)-1H-pyrazol-5-yl)-3-(4-((2-(pyrazin-2-ylamino)pyridin-4-yl)methoxy)naphthalen-1-yl)urea] |
| 0.019 | 0.151 | CO[C@H]1CCCN(C(=O)c2cnc(Nc3cc(COc4ccc(NC(=O)Nc5cc(C(C)(C)C)nn5-c5ccc(C)cc5)c5ccccc45)ccn3)cn2)C1 [Example 238, (S)-1-(3-(tert-butyl)-1-(p-tolyl)-1H-pyrazol-5-yl)-3-(4-((2-((5-(3-methoxypiperidine-1-carbonyl)pyrazin-2-yl)amino)pyridin-4-yl)methoxy)naphthalen-1-yl)urea] |
| 0.014 | 0.13 | CO[C@@H]1CCCN(C(=O)c2cnc(Nc3cc(COc4ccc(NC(=O)Nc5cc(C(C)(C)C)nn5-c5ccc(C)cc5)c5ccccc45)ccn3)cn2)C1 [Example 239, (R)-1-(3-(tert-butyl)-1-(p-tolyl)-1H-pyrazol-5-yl)-3-(4-((2-((5-(3-methoxy-piperidine-1-carbonyl)pyrazin-2-yl)amino)pyridin-4-yl)methoxy)naphthalen-1-yl)urea] |
| 0.012 | 0.08 | CC(=O)N1CCN(C(=O)c2cnc(Nc3cc(COc4ccc(NC(=O)Nc5cc(C(C)(C)C)nn5-c5ccc(C)cc5)c5ccccc45)ccn3)cn2)CC1 [Example 240, 1-(4-((2-((5-(4-acetyl-piperazine-1-carbonyl)pyrazin-2-yl)amino)pyridin-4-yl)methoxy)naphthalen-1-yl)-3-(3-(tert-butyl)-1-(p-tolyl)-1H-pyrazol-5-yl)urea] |
| 0.019 | > 14 | Cc1ccc(-n2nc(C(C)(C)C)cc2NC(=O)Nc2ccc(OCc3ccnc(Nc4cnc(C(=O)N5CC[C@H](F)C5)cn4)c3)c3ccccc23)cc1 [Example 242, (S)-1-(3-(tert-butyl)-1-(p-tolyl)-1H-pyrazol-5-yl)-3-(4-((2-((5-(3-fluoropyrrolidine-1-carbonyl)pyrazin-2-yl)amino)pyridin-4-yl)methoxy)naphthalen-1-yl)urea] |
| 0.018 | 1.7 | Cc1ccc(-n2nc(C(C)(C)C)cc2NC(=O)Nc2ccc(OCc3ccnc(Nc4cnc(C(=O)N5CC[C@@H](F)C5)cn4)c3)c3ccccc23)cc1 [Example 245, (R)-1-(3-(tert-butyl)-1-(p-tolyl)-1H-pyrazol-5-yl)-3-(4-((2-((5-(3-fluoropyrrolidine-1-carbonyl)pyrazin-2-yl)amino)pyridin-4-yl)methoxy)naphthalen-1-yl)urea] |
| 0.058 | 3.73 | Cc1ccc(-n2nc(C(C)(C)C)cc2NC(=O)Nc2ccc(OCc3ccnc(Nc4cnc(C(=O)N5CCC(F)(F)CC5)cn4)c3)c3ccccc23)cc1 [Example 246, 1-(3-(tert-butyl)-1-(p-tolyl)-1H-pyrazol-5-yl)-3-(4-((2-((5-(4,4-difluoropiperidine-1-carbonyl)pyrazin-2-yl)amino)pyridin-4-yl)methoxy)naphthalen-1-yl)urea] |
| 0.0047 | 0.051 | Cc1ccc(-n2nc(C(C)(C)C)cc2NC(=O)Nc2ccc(OCc3ccnc(Nc4cnc(C(=O)N5C[C@@H](O)[C@H](O)C5)cn4)c3)c3ccccc23)cc1 [Example 248, 1-(3-(tert-butyl)-1-(p-tolyl)-1H-pyrazol-5-yl)-3-(4-((2-((5-((3R,4R)-3,4-dihydroxy-pyrrolidine-1-carbonyl)pyrazin-2-yl)amino)pyridin-4-yl)methoxy)naphthalen-1-yl)urea] |
| 0.0036 | 0.046 | Cc1ccc(-n2nc(C(C)(C)C)cc2NC(=O)Nc2ccc(OCc3ccnc(Nc4cnc(C(=O)N5CCNC(=O)C5)cn4)c3)c3ccccc23)cc1 [Example 249, 1-(3-(tert-butyl)-1-(p-tolyl)-1H-pyrazol-5-yl)-3-(4-((2-((5-(3-oxopiperazine-1-carbonyl)pyrazin-2-yl)amino)pyridin-4-yl)methoxy)naphthalen-1-yl)urea] |
